System: AAV1/2-mediated over-expression of human A53T alpha-synuclein (hA53T-aSYN) in the striatonigral region of female Sprague Dawley (SD) rats
Experiment: AAV1/2 alpha synuclein rat model of synucleinopathy (neuroprotective potential)
Format: in vivo
Details: Day 2 to Day 42; for Striatal dopamine levels, operated vs non-operated sides: FIG. 3; for Nigral TH+ve cell counts (operated side): TH+ve neurons in the striatonigral region compared to empty AAV1/2 control animals: immunohistochemistry and stereological cell counting, FIG. 1; for Striatal TH OD (operated vs non-operated sides): FIG. 2
Description: Compound I was evaluated in a adeno-associated virus (AAV) AAV1/2 alpha synuclein rat model based upon AAV1/2-mediated delivery and over-expression of human A53T alpha-synuclein (hA53T-aSYN) in the striatonigral region of the midbrain of female Sprague Dawley (SD) rats (Koprich et al, PLoS One. 7; 6(3):e17698, 2011). The study was designed to assess the ability of Compound I to protect dopaminergic neurons from viral vector mediated over-expression of aSYN leading to neurodegeneration in rat model. This model is typically used as a model for aSYN-induced Parkinsonism, but may serve as a model for aSYN-induced neuronal loss in general. AAV1/2 hA53T-aSYN (a viral vector delivering the capability to express human A53T mutant aSYN), or the control AAV1/2 empty vector, was injected stereotactically and unilaterally, into the striatal region of the midbrain. Rats were treated orally with Compound I (melt extrusion suspension), once daily, to provide equivalent doses of Compound I at 15, 30 and 45 mg/kg.
AAV1/2 hA53T-aSYN or empty AAV1/2 vector was administered sterotactically and unilaterally into the right striatal region on Day 1. Starting on Day 2 and continuing daily until Day 42, animals were fasted for 6 hr prior to oral administration of Compound I or vehicle (placebo). Food was reintroduced 60 minutes later. A total of 5 groups of animals, each group N=12, were employed.
Animals were killed for post-mortem assessments on Day 43, at least 18 h after last administration of Compound I or vehicle. Brains were removed along with the terminal blood collection.
As a consequence of localized synucleinopathy caused by the AAV1/2-encoded hA53T aSYN at or near the site of injection, tyrosine hydroxylase (TH)-expressing dopaminergic neurons in the affected striatonigral area degenerate (Koprich et al., PLoS One, 7; 6(3):e17698, 2011). Number of tyrosine hydroxylase positive (TH^+ve) cells within the striatonigral region of the right side of the brain (injected side), were assessed using immunohistochemistry and stereological cell counting. Tyrosine hydroxylase is a critical enzyme involved in dopamine biosynthesis and thus, its presence can be used as a marker of live neurons capable of producing dopamine.

SMILES: Cc1ccc(C(=O)NNC(=O)c2c(C)cccc2Cl)cc1C#Cc1cnc2ccccc2c1 [Compound I]
- Striatal dopamine levels, operated vs non-operated sides (15 mg/kg oral once daily): failed to restore the dopamine biosynthetic capability
- Nigral TH+ve cell counts (operated side): TH+ve neurons in the striatonigral region compared to empty AAV1/2 control animals (15 mg/kg oral once daily): significant reduction (p<0.05)
- Striatal TH OD (operated vs non-operated sides) (30 mg/kg oral once daily): significant neuroprotective effect
- Striatal dopamine levels, operated vs non-operated sides (30 mg/kg oral once daily): failed to restore the dopamine biosynthetic capability
- Nigral TH+ve cell counts (operated side): TH+ve neurons in the striatonigral region compared to empty AAV1/2 control animals (30 mg/kg oral once daily): significant reduction (p<0.05)
- Striatal TH OD (operated vs non-operated sides) (45 mg/kg oral once daily): significant neuroprotective effect
- Striatal dopamine levels, operated vs non-operated sides (45 mg/kg oral once daily): still lower than that from its left counterpart
- Nigral TH+ve cell counts (operated side): TH+ve neurons in the striatonigral region compared to empty AAV1/2 control animals (45 mg/kg oral once daily): did not show significant reduction (p>0.05)
